Results taken from US8883782B2, “Spiro-tetracyclic ring compounds as beta-secretase modulators and methods of use” (Amgen Inc., priority 2010, dated 2014).
pIC50: −log10 of the molar value. Read-outs that look alike come from different tables or passages of the source.

Assays:
[1] = molecular target: Beta Secretase enzyme (BACE) (Homo sapiens, UniProt P56817); test: In vitro enzymatic BACE FRET (fluorescence resonance energy transfer) assay; type: biochemical; settings: for pIC50: average IC50, enzyme assay, read-out: BACE 1 FRET assay
Beta Secretase enzyme (BACE), sequence (P56817 46-501, species assumed): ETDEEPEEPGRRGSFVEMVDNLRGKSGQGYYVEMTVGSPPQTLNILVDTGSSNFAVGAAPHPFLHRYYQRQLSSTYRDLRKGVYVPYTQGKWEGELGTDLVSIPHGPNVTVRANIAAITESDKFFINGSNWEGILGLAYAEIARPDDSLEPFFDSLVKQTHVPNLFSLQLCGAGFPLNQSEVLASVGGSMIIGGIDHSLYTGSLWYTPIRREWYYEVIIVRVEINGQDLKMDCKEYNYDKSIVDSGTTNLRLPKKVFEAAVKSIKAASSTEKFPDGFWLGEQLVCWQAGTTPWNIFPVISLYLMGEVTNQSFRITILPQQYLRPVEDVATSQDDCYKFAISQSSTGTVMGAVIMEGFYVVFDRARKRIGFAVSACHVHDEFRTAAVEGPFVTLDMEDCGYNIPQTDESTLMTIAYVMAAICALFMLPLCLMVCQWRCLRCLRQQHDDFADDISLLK
Summary of the method: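 A peptide bearing a fluorophore and quencher across the cleavage site serves as substrate at 50 nM. Reactions proceed one hour in acidic acetate buffer (0.05 M, pH 4.2) containing 10% DMSO final and 100 uM genapol, then are terminated with Tris and read fluorimetrically.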

[2] = test system: Aβ40 in conditioned medium of cells stably expressing Amyloid Precursor Protein (APP); test: In vitro BACE cell-based assay (Aβ40 in conditioned medium, sandwich ELISA); settings: Homo sapiens; for pIC50: read-out: HEK cell assay
Summary of the method: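 Secreted Aβ40 is captured with pAb40 and detected with biotinylated 6E10, read by europium time-resolved fluorescence. IC50 comes from percent inhibition versus concentration.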

[3] = HEK293, average IC50, HEK cells

Row | Compound | pIC50 [1] | pIC50 ([2]; HEK293, average IC50) | pIC50 [2, 3] | IC50 ([1]; BACE 1 FRET assay (uM)) | IC50 ([2]; HEK293, read-out: HEK cell assay (uM), average IC50, HEK cells)
1 | COC(C)(C)COc1cnc2c(c1)[C@]1(COC(N)=N1)c1cc(-c3cccc(C(F)(F)F)c3)ccc1O2 [Example 317, (5S)-3-(2-methoxy-2-methylpropoxy)-7-(3-(trifluoromethyl)phenyl)spiro[chromeno[2,3-b]pyridine-5,4′-[1,3]oxazol]-2′-amine] | 8.60 | 7.62 |  |  | 
2 | COc1cc2c(c(F)c1F)Oc1ccc(-c3cccnc3F)cc1[C@@]21COC(N)=N1 [Example 1005, (4S)-3′,4′-difluoro-7′-(2-fluoro-3-pyridinyl)-2′-methoxyspiro[1,3-oxazole-4,9′-xanthen]-2-amine] | 8.24 | 6.00 |  |  | 
3 | Cc1cc(-c2ccc3c(c2)[C@@]2(COC(N)=N2)c2cc(C4=CCOCC4)cnc2O3)cnc1F [Example 467, (5S)-3-(3,6-dihydro-2H-pyran-4-yl)-7-(6-fluoro-5-methyl-3-pyridinyl)spiro[chromeno[2,3-b]pyridine-5,4′-[1,3]oxazol]-2′-amine] | 7.68 |  | 7.29 |  | 
4 | NC1=N[C@@]2(CS1)c1cc(-c3cccnc3F)ccc1Oc1ncc(C3CCOCC3)cc12 [Example 729, (5S)-7-(2-fluoro-3-pyridinyl)-3-(tetrahydro-2H-pyran-4-yl)spiro[chromeno[2,3-b]pyridine-5,4′-[1,3]thiazol]-2′-amine] | 8.17 | 7.37 |  |  | 
5 | NC1=NC2(CS1)c1cc(-c3cccnc3F)ccc1Oc1c2cc(Cl)nc1F (stereo not shown) [Example 611, 3-chloro-1-fluoro-7-(2-fluoro-3-pyridinyl)spiro[chromeno[2,3-c]pyridine-5,4′-[1,3]thiazol]-2′-amine] | 8.21 |  | 5.53 |  | 
6 | CC1(C#Cc2cnc3c(c2)[C@]2(COC(N)=N2)c2cc(-c4ccc(F)nc4)ccc2O3)COC1 [Example 167, (5S)-7-(6-fluoro-3-pyridinyl)-3-((3-methyl-3-oxetanyl)ethynyl)spiro[chromeno[2,3-b]pyridine-5,4′-[1,3]oxazol]-2′-amine] | 8.59 | 7.86 |  |  | 
7 | COCC1SC(N)=N[C@]12c1cc(-c3cccnc3F)ccc1Oc1c(F)cc(OC)cc12 (stereo partly drawn) [Example 1091, (4S)-4′-fluoro-7′-(2-fluoro-3-pyridinyl)-2′-methoxy-5-(methoxymethyl)spiro[1,3-thiazole-4,9′-xanthen]-2-amine] | 5.29 | < 5.00 |  |  | 
8 | NC1=N[C@@]2(CO1)c1cc(-c3cnccc3F)ccc1Oc1c(F)cc(C3CCOCC3)cc12 [Example 1056, (4S)-4′-fluoro-7′-(4-fluoro-3-pyridinyl)-2′-(tetrahydro-2H-pyran-4-yl)spiro[1,3-oxazole-4,9′-xanthen]-2-amine] | 8.52 | 7.77 |  |  | 
9 | Cn1ccc(-c2cnc3c(c2)[C@]2(COC(N)=N2)c2cc(C#CC4CC4)ccc2O3)n1 [Example 183, (5S)-7-(cyclopropylethynyl)-3-(1-methyl-1H-pyrazol-3-yl)spiro[chromeno[2,3-b]pyridine-5,4′-[1,3]oxazol]-2′-amine] | 7.29 | 6.72 |  |  | 
10 | CC1(C#Cc2cnc3c(c2)[C@@]2(COC(N)=N2)c2cc(-c4cncc(F)c4)c(F)cc2O3)COC1 [Example 624, (5R)-8-fluoro-7-(5-fluoro-3-pyridinyl)-3-((3-methyl-3-oxetanyl)ethynyl)spiro[chromeno[2,3-b]pyridine-5,4′-[1,3]oxazol]-2′-amine] | 6.01 |  | 6.12 |  | 
11 | NC1=N[C@@]2(CO1)c1cc(C3=CCOCC3)cnc1Oc1ccc(-c3cccnc3F)c(F)c12 [Example 347, (5S)-3-(3,6-dihydro-2H-pyran-4-yl)-6-fluoro-7-(2-fluoro-3-pyridinyl)spiro[chromeno[2,3-b]pyridine-5,4′-[1,3]oxazol]-2′-amine] | 6.45 | 6.34 |  |  | 
12 | NC1=N[C@@]2(CO1)c1cc(OCCCc3ccccc3)ccc1Oc1ncc(-c3cccnc3)cc12 [Example 981, (5S)-7-(3-phenylpropoxy)-3-(3-pyridinyl)spiro[chromeno[2,3-b]pyridine-5,4′-[1,3]oxazol]-2′-amine] | 7.65 | 6.58 |  |  | 
13 | COc1ccc2c(c1)C1(COC(N)=N1)c1cc(N3CCC(F)(F)C3)ncc1O2 (stereo not shown) [Example 431, 3-(3,3-difluoro-1-pyrrolidinyl)-7-methoxyspiro[chromeno[2,3-c]pyridine-5,4′-[1,3]oxazol]-2′-amine] | 5.76 |  | 5.00 |  | 
14 | Cc1cc(-c2ccc3c(c2)[C@@]2(COC(N)=N2)c2cc(-c4ccncc4)ncc2O3)cnc1F [Example 229, (5S)-7-(6-fluoro-5-methyl-3-pyridinyl)-3-(4-pyridinyl)spiro[chromeno[2,3-c]pyridine-5,4′-[1,3]oxazol]-2′-amine] | 7.89 | 7.22 |  |  | 
15 | NC1=N[C@@]2(CS1)c1cc(-c3cccnc3F)ccc1Oc1cnc([C@@H]3CCCOC3)cc12 [Example 931, (5S)-7-(2-fluoro-3-pyridinyl)-3-((3S)-tetrahydro-2H-pyran-3-yl)spiro[chromeno[2,3-c]pyridine-5,4′-[1,3]thiazol]-2′-amine] | 7.67 |  | 6.46 |  | 
16 | Cn1cc(-c2cnc3c(c2)[C@@]2(COC(N)=N2)c2c(ccc(-c4cccnc4F)c2F)O3)cn1 [Example 357, (5S)-6-fluoro-7-(2-fluoro-3-pyridinyl)-3-(1-methyl-1H-pyrazol-4-yl)spiro[chromeno[2,3-b]pyridine-5,4′-[1,3]oxazol]-2′-amine] | 5.98 | 5.67 |  |  | 
17 | CC(C)(C)/C=C/c1ccc2c(c1)[C@]1(COC(N)=N1)c1cc(-c3cncnc3)c(F)cc1O2 [Example 496, (4R)-7′-((1E)-3,3-dimethyl-1-buten-1-yl)-3′-fluoro-2′-(5-pyrimidinyl)spiro[1,3-oxazole-4,9′-xanthen]-2-amine] |  |  |  | 0.0014 µM | 0.0311 µM
18 | NC1=N[C@@]2(CO1)c1cc(-c3cccnc3F)ccc1Oc1cnc(C3CCCCC3)cc12 [Example 388, (5S)-3-cyclohexyl-7-(2-fluoro-3-pyridinyl)spiro[chromeno[2,3-c]pyridine-5,4′-[1,3]oxazol]-2′-amine] | 8.54 |  | 6.97 |  | 
19 | CC1(C#Cc2cc3c(cn2)Oc2ccc(-c4ccc(F)nc4)cc2[C@@]32COC(N)=N2)COC1 [Example 156, (5S)-7-(6-fluoro-3-pyridinyl)-3-((3-methyl-3-oxetanyl)ethynyl)spiro[chromeno[2,3-c]pyridine-5,4′-[1,3]oxazol]-2′-amine] | 7.96 | 7.34 |  |  | 

More lines, main results first:

Row | pIC50 [1] | pIC50 ([2]; HEK293, average IC50) | pIC50 [2, 3] | Compound | IC50 ([1]; BACE 1 FRET assay (uM)) | IC50 ([2]; HEK293, read-out: HEK cell assay (uM), average IC50, HEK cells)
20 | 8.74 |  | 8.20 | COc1cncc(-c2ccc3c(c2)[C@@]2(COC(N)=N2)c2cc(C#CC4(C)COC4)cnc2O3)c1 [Example 461, (5S)-7-(5-methoxy-3-pyridinyl)-3-((3-methyl-3-oxetanyl)ethynyl)spiro[chromeno[2,3-b]pyridine-5,4′-[1,3]oxazol]-2′-amine] |  | 
21 | 9.10 | 8.33 |  | CC(C)(C#N)COc1cc(F)c2c(c1)[C@]1(COC(N)=N1)c1cc(-c3cncc(C#N)c3)ccc1O2 [Example 265, 5-((4S)-2-amino-7′-(2-cyano-2-methylpropoxy)-5′-fluorospiro[1,3-oxazole-4,9′-xanthen]-2′-yl)-3-pyridinecarbonitrile] |  | 
22 | 8.70 | 8.52 |  | NC1=N[C@@]2(CO1)c1cc(-c3cccnc3F)ccc1Oc1ncc(-c3cccnc3F)cc12 [Example 732, (5S)-3,7-bis(2-fluoro-3-pyridinyl)spiro[chromeno[2,3-b]pyridine-5,4′-[1,3]oxazol]-2′-amine] |  | 
23 | 8.77 | 7.66 |  | NC1=N[C@@]2(CO1)c1cc(-c3cccnc3F)ccc1Oc1c(F)cc([C@H]3CCCOC3)cc12 [Example 287, (4S)-4′-fluoro-7′-(2-fluoro-3-pyridinyl)-2′-((3R)-tetrahydro-2H-pyran-3-yl)spiro[1,3-oxazole-4,9′-xanthen]-2-amine] |  | 
24 | 8.64 | 7.36 |  | NC1=N[C@@]2(CS1)c1cc(-c3cnccc3F)ccc1Oc1ncc(-c3cccnc3)cc12 [Example 769, (5S)-7-(4-fluoro-3-pyridinyl)-3-(3-pyridinyl)spiro[chromeno[2,3-b]pyridine-5,4′-[1,3]thiazol]-2′-amine] |  | 
25 | 9.30 |  | 8.10 | CC1(COc2cc(F)c3c(c2)[C@]2(CSC(N)=N2)c2cc(-c4cncnc4)c(F)cc2O3)COC1 [Example 875, (4S)-3′,5′-difluoro-7′-((3-methyl-3-oxetanyl)methoxy)-2′-(5-pyrimidinyl)spiro[1,3-thiazole-4,9′-xanthen]-2-amine] |  | 
26 | 9.00 |  | 7.82 | NC1=N[C@@]2(CO1)c1cc(-c3cccnc3)c(F)cc1Oc1c(F)cc(N3CCOCC3)cc12 [Example 861, (4S)-3′,5′-difluoro-7′-(4-morpholinyl)-2′-(3-pyridinyl)spiro[1,3-oxazole-4,9′-xanthen]-2-amine] |  | 
27 | 9.40 | 8.70 |  | C=Cc1cc2c(c(F)n1)Oc1ccc(-c3cncc(F)c3)cc1C21COC(N)=N1 (stereo not shown) [Example 848, 3-ethenyl-1-fluoro-7-(5-fluoro-3-pyridinyl)spiro[chromeno[2,3-c]pyridine-5,4′-[1,3]oxazol]-2′-amine] |  | 
28 | 8.70 | 6.92 |  | CC1(C)CC(c2cc3c(c(F)n2)Oc2ccc(-c4cccnc4F)cc2[C@]32CSC(N)=N2)=CCO1 [Example 1036, (5R)-3-(2,2-dimethyl-3,6-dihydro-2H-pyran-4-yl)-1-fluoro-7-(2-fluoro-3-pyridinyl)spiro[chromeno[2,3-c]pyridine-5,4′-[1,3]thiazol]-2′-amine] |  | 
29 | 8.85 |  | 7.86 | NC1=N[C@@]2(CO1)c1cc(-c3cccnc3F)ccc1Oc1ncc(C#CC3(F)COC3)cc12 [Example 520, (5S)-3-((3-fluoro-3-oxetanyl)ethynyl)-7-(2-fluoro-3-pyridinyl)spiro[chromeno[2,3-b]pyridine-5,4′-[1,3]oxazol]-2′-amine] |  | 
